This note sets out measurements from patent US8383094B2, “Hepatitis C virus inhibitors” (Bristol-Myers Squibb Company, priority 2008, dated 2013).

Bounds are passed on as bounds.

One test deals with HCV 1b genotype. Nature of the test: HCV Replicon assay (HCV-neo replicon cells, wild-type). The class given is cell-based. The settings on record: HCV 1b genotype replicon; range class A-D; read-out: 1b EC50 (in μM or range). For orientation: A replicon is a self-replicating genome or part of one, used to study replication in cells.
The term EC50 denotes the concentration at which the effect is half-maximal. As to `CN(C)C1(C(=O)N2CCC[C@H]2C(=O)Nc2ccc(C#Cc3ccc(NC(=O)[C@@H]4CCCN4C(=O)C4(N(C)C)CCc5ccccc54)cc3)cc2)CCc2ccccc21` (stereo partly drawn) [VN42, (2S,2′S)-N,N′-(1,2-ethynediyldi-4,1-phenylene)bis(1-((1-(dimethylamino)-2,3-dihydro-1H-inden-1-yl)carbonyl)-2-pyrrolidinecarboxamide)], the EC50 was in the range of 4.57 to 99 nM.
In the case of `CC(C)OC(=O)N[C@@H](C(=O)N1CCC[C@H]1C(=O)Nc1ccc(C#Cc2ccc(NC(=O)[C@@H]3CCCN3C(=O)[C@H](NC(=O)OC(C)C)c3ccccc3)cc2)cc1)c1ccccc1` [VN57, Diisopropyl (1,2-ethynediylbis(4,1-phenylenecarbamoyl(2S)-2,1-pyrrolidinediyl((1R)-2-oxo-1-phenyl-2,1-ethanediyl)))biscarbamate], the EC50 was less than 4.57 nM.

The same test, now with this note: HCV 1b genotype replicon; read-out: 1b EC50 (in μM or range).
Regarding `CN1C[C@@H]2C[C@H]1CN2C(C(=O)N1CCC[C@H]1C(=O)Nc1ccc(C#Cc2ccc(NC(=O)[C@@H]3CCCN3C(=O)C(c3ccccc3)N3C[C@@H]4C[C@H]3CN4C)cc2)cc1)c1ccccc1` (stereo partly drawn) [VN18, (2S,2′S)-N,N′-(1,2-ethynediyldi-4,1-phenylene)bis(1-(((1S,4S)-5-methyl-2,5-diazabicyclo[2.2.1]hept-2-yl)(phenyl)acetyl)-2-pyrrolidinecarboxamide)], the EC50 turned out to be 130 nM.

Staying with this test, now noted: Hepatitis C virus, HCV 1b genotype replicon; range class A-D; read-out: 1b EC50 (in μM or range).
As for `CC(=O)N1CCC[C@H]1C(=O)Nc1ccc(C#Cc2ccc(NC(=O)C3CC(=O)N(Cc4ccc(Cl)cc4)C3)cc2)cc1` (stereo partly drawn) [Example D13, 1-Acetyl-N-(4-((4-(((1-(4-chlorobenzyl)-5-oxo-3-pyrrolidinyl)carbonyl)amino)phenyl)ethynyl)phenyl)-L-prolinamide], the EC50 was 1000 to 10000 nM.
Regarding `CN(C)C1(C(=O)N2CCC[C@H]2C(=O)Nc2ccc(C#Cc3ccc(NC(=O)[C@@H]4CCCN4C(=O)C4(N(C)C)CCc5ccccc54)cc3)cc2)CCc2ccccc21` (stereo partly drawn) [VN41, (2S,2′S)-N,N′-(1,2-ethynediyldi-4,1-phenylene)bis(1-((1-(dimethylamino)-2,3-dihydro-1H-inden-1-yl)carbonyl)-2-pyrrolidinecarboxamide)], the concentration giving a half-maximal response (EC50) was less than 4.57 nM.
Turning to `O=C(Nc1ccc(C#Cc2ccc(NC(=O)[C@@H]3CCCN3C(=O)C(c3ccccc3)N3CC[C@@H](O)C3)cc2)cc1)[C@@H]1CCCN1C(=O)C(c1ccccc1)N1CC[C@@H](O)C1` (stereo partly drawn) [VN52, (2S,2′S)-N,N′-(1,2-ethynediyldi-4,1-phenylene)bis(1-(((3R)-3-hydroxy-1-pyrrolidinyl)(phenyl)acetyl)-2-pyrrolidinecarboxamide)], the EC50 was less than 4.57 nM.
Same read-out and setting: the value for `N#Cc1cc2ccccc2c(C(=O)N2CCC[C@H]2C(=O)Nc2ccc(C#Cc3ccc(NC(=O)[C@@H]4CCCN4C(=O)c4nc(C#N)cc5ccccc45)cc3)cc2)n1` [Example D32, (2S,2′S)-N,N′-(1,2-ethynediyldi-4,1-phenylene)bis(1-((3-cyano-1-isoquinolinyl)carbonyl)-2-pyrrolidinecarboxamide)] was 4.57 to 99 nM.
As to `O=C(Nc1ccc(C#Cc2ccc(NC(=O)[C@@H]3CCCN3C(=O)c3nccc4ccccc34)cc2)cc1)[C@@H]1CCCN1C(=O)c1nccc2ccccc12` [Example D28, (2S,2′S)-N,N′-(1,2-ethynediyldi-4,1-phenylene)bis(1-(1-isoquinolinylcarbonyl)-2-pyrrolidinecarboxamide)], the EC50 lay in the range of 100 to 999 nM.
Turning to `CCOc1cccc2c(C(=O)N3CCC[C@H]3C(=O)Nc3ccc(C#Cc4ccc(NC(=O)[C@@H]5CCCN5C(=O)c5nc(Cl)cc6c(OCC)cccc56)cc4)cc3)nc(Cl)cc12` [Example D34, (2S,2′S)-N,N′-(1,2-ethynediyldi-4,1-phenylene)bis(1-((3-chloro-5-ethoxy-1-isoquinolinyl)carbonyl)-2-pyrrolidinecarboxamide)], the EC50 was in the range of 4.57 to 99 nM.
For the compound `CC(=O)N1CCC[C@H]1C(=O)Nc1ccc(C#Cc2ccc(NC(=O)[C@@H]3C[C@@H](OC(C)(C)C)CN3C(=O)OCc3ccccc3)cc2)cc1` [Example D7, Benzyl (2S,4R)-2-((4-((4-((((2S)-1-acetyl-2-pyrrolidinyl)carbonyl)amino)phenyl)ethynyl)phenyl)carbamoyl)-4-tert-butoxy-1-pyrrolidinecarboxylate], the EC50 was in the range of 1000 to 10000 nM.
Still for that read-out and setting: the value for `O=C(CC1CC1)Nc1ccc(C#Cc2ccc(NC(=O)[C@@H]3CCCN3C(=O)Cc3ccccc3)cc2)cc1` [Example D16, N-(4-((4-((cyclopropylacetyl)amino)phenyl)ethynyl)phenyl)-1-(phenylacetyl)-L-prolinamide] was 100 to 999 nM; that for `CC[C@@H](C(=O)N1CCC[C@H]1C(=O)Nc1ccc(C#Cc2ccc(NC(=O)[C@@H]3CCCN3C(=O)[C@H](CC)c3ccccc3)cc2)cc1)c1ccccc1` [VN7, (2S,2′S)-N,N′-(1,2-ethynediyldi-4,1-phenylene)bis(1-((2R)-2-phenylbutanoyl)-2-pyrrolidinecarboxamide)] was less than 4.57 nM.
Consider `O=C(Nc1ccc(C#Cc2ccc(NC(=O)[C@@H]3CCCN3C(=O)CC3CC3)cc2)cc1)[C@@H]1CCCN1C(=O)CC1CC1` [Example D37, (2S,2′S)-N,N′-(1,2-ethynediyldi-4,1-phenylene)bis(1-(cyclopropylacetyl)-2-pyrrolidinecarboxamide)], for which the EC50 is 4.57 to 99 nM.
On the same count and under the same terms, the value for `O=C(Nc1ccc(C#Cc2ccc(NC(=O)[C@@H]3CCCN3C(=O)[C@@H](c3ccccc3)N3CCCC3)cc2)cc1)[C@@H]1CCCN1C(=O)[C@@H](c1ccccc1)N1CCCC1` [VN12, (2S,2′S)-N,N′-(1,2-ethynediyldi-4,1-phenylene)bis(1-((2R)-2-phenyl-2-(1-pyrrolidinyl)acetyl)-2-pyrrolidinecarboxamide)] was less than 4.57 nM; that for `CC(=O)N(C)C(C(=O)N1CCC[C@H]1C(=O)Nc1ccc(C#Cc2ccc(NC(=O)[C@@H]3CCCN3C(=O)C(c3ccccc3)N(C)C(C)=O)cc2)cc1)c1ccccc1` (single isomer, unassigned) [VN35] was 100 to 999 nM; that for `O=C(Nc1ccc(C#Cc2ccc(NC(=O)[C@@H]3CCCN3C(=O)[C@H](O)c3ccccc3)cc2)cc1)[C@@H]1CCCN1C(=O)c1nc(Cl)cc2ccccc12` [Example D44, (2S)-1-((3-Chloro-1-isoquinolinyl)carbonyl)-N-(4-((4-((((2S)-1-((2R)-2-hydroxy-2-phenylacetyl)-2-pyrrolidinyl)carbonyl)amino)phenyl)ethynyl)phenyl)-2-pyrrolidinecarboxamide] was less than 4.57 nM.
With `CN(C)[C@@H](Cc1ccccc1)C(=O)N1CCC[C@H]1C(=O)Nc1ccc(C#Cc2ccc(NC(=O)[C@@H]3CCCN3C(=O)[C@H](Cc3ccccc3)N(C)C)cc2)cc1` [VN29, (2S,2′S)-N,N′-(1,2-ethynediyldi-4,1-phenylene)bis(1-((2S)-2-(dimethylamino)-3-phenylpropanoyl)-2-pyrrolidinecarboxamide)], the EC50 fell in the range of 100 to 999 nM.
`O=C(Nc1ccc(C#Cc2ccc(NC(=O)C3CC(=O)N(Cc4ccc(Cl)cc4)C3)cc2)cc1)C1CC(=O)N(Cc2ccc(Cl)cc2)C1` (centres unmarked) [Example D14, N,N′-(1,2-ethynediyldi-4,1-phenylene)bis(1-(4-chlorobenzyl)-5-oxo-3-pyrrolidinecarboxamide)]: the EC50 lay within 1000 to 10000 nM.
Take `CN(C)C(C)(C(=O)N1CCC[C@H]1C(=O)Nc1ccc(C#Cc2ccc(NC(=O)[C@@H]3CCCN3C(=O)C(C)(c3ccccc3)N(C)C)cc2)cc1)c1ccccc1` (stereo partly drawn) [VN37, (2S,2′S)-N,N′-(1,2-ethynediyldi-4,1-phenylene)bis(1-(2-(dimethylamino)-2-phenylpropanoyl)-2-pyrrolidinecarboxamide)]: the EC50 was less than 4.57 nM.
On the same count and under the same terms, then `O=C(Nc1ccc(C#Cc2ccc(NC(=O)C3CC(=O)N(CCc4cccs4)C3)cc2)cc1)C1CC(=O)N(CCc2cccs2)C1` (centres unmarked) [Example D10, N,N′-(1,2-ethynediyldi-4,1-phenylene)bis(5-oxo-1-(2-(2-thienyl)ethyl)-3-pyrrolidinecarboxamide)], with 1000 to 10000 nM; and `O=C(Nc1ccc(C#Cc2ccc(NC(=O)[C@@H]3CCCN3C(=O)OCc3ccccc3)cc2)cc1)C1CC1` [Example D18, Benzyl (2S)-2-((4-((4-((cyclopropylcarbonyl)amino)phenyl)ethynyl)phenyl)carbamoyl)-1-pyrrolidinecarboxylate], with 100 to 999 nM.

The same test, now with this note: Hepatitis C virus, HCV 1b genotype replicon; read-out: 1b EC50 (in μM or range).
Take `CN1CCN(C(C(=O)N2CCC[C@H]2C(=O)Nc2ccc(C#Cc3ccc(NC(=O)[C@@H]4CCCN4C(=O)C(c4ccccc4)N4CCN(C)CC4)cc3)cc2)c2ccccc2)CC1` (stereo partly drawn) [VN43, (2S,2′S)-N,N′-(1,2-ethynediyldi-4,1-phenylene)bis(1-((4-methyl-1-piperazinyl)(phenyl)acetyl)-2-pyrrolidinecarboxamide)]: the EC50 amounted to 0.015 nM.
On the same count and under the same terms, the value for `Cn1c(C(=O)N2CCC[C@H]2C(=O)Nc2ccc(C#Cc3ccc(NC(=O)[C@@H]4CCCN4C(=O)c4cc5ccccc5n4C)cc3)cc2)cc2ccccc21` [Example D30, (2S,2′S)-N,N′-(1,2-ethynediyldi-4,1-phenylene)bis(1-((1-methyl-1H-indol-2-yl)carbonyl)-2-pyrrolidinecarboxamide)] was 1210 nM; that for `CCC(=O)N[C@@H](C(=O)N1CCC[C@H]1C(=O)Nc1ccc(C#Cc2ccc(NC(=O)[C@@H]3CCCN3C(=O)[C@H](NC(=O)CC)c3ccccc3)cc2)cc1)c1ccccc1` [VN24, (2S,2′S)-N,N′-(1,2-ethynediyldi-4,1-phenylene)bis(1-((2R)-2-phenyl-2-(propionylamino)acetyl)-2-pyrrolidinecarboxamide)] was more than 10000 nM.
On the same count and under the same terms, then `CC(=O)N1CCC[C@H]1C(=O)Nc1ccc(C#Cc2ccc(NC(=O)[C@@H]3CCCN3C(=O)Cc3ccccc3)cc2)cc1` [Example D22, (2S)-1-Acetyl-N-(4-((4-((((2S)-1-(phenylacetyl)-2-pyrrolidinyl)carbonyl)amino)phenyl)ethynyl)phenyl)-2-pyrrolidinecarboxamide], with 140 nM.

The test is the same for the next values; noted with them: Hepatitis C virus, read-out: 1b EC50 (in μM or range), HCV 1b genotype replicon; range class A-D.
In the case of `CN1CCN(C(C(=O)N2CCC[C@H]2C(=O)Nc2ccc(C#Cc3ccc(NC(=O)[C@@H]4CCCN4C(=O)C(c4ccccc4)N4CCN(C)CC4)cc3)cc2)c2ccccc2)CC1` (stereo partly drawn) [VA44, (2S,2′S)-N,N′-(1,2-ethynediyldi-4,1-phenylene)bis(1-((4-methyl-1-piperazinyl)(phenyl)acetyl)-2-pyrrolidinecarboxamide)], the EC50 is less than 4.57 nM.
